Laboratory results taken from US8367639B2, “Hydrogels with covalent and noncovalent crosslinks” (University of Delaware, priority 2005, dated 2013).
Several values for one entry are separate records, joined by “and”; a condition that tells them apart may be missing. Equal entries are not always repeated. Where two headings read alike, the source gives them in different places. Square brackets hold non-standard residues; d marks the D form. Ends that are not written are not given here. βAla = NCCC(=O)O

What was measured:
[1] = 25° C.; previously reported studies; cited from earlier work
[2] = NaCl; 25° C.; previously reported studies; cited from earlier work
[3] = Heparin-sepharose affinity chromatography (NaCl elution); format: binding; conditions: 25° C.
Experimental: (§1) Heparin-sepharose affinity liquid chromatography was performed on an ÄKTA Explorer FPLC equipped with a HiTrap Heparin HP column (5 ml, ˜10 mg heparin/ml gel, Amersham Biosciences Corp, Piscataway, N.J.). Surface Plasmon Resonance (SPR). SPR sensorgrams were recorded on a BiaCore 3000 instrument (Biacore Inc, Piscataway, N.J.), employing a high-capacity LMWH surface created on a commercially available streptavidin-coated chip via treatment with biotinylated LMWH.
For heparin affinity chromatography experiments, HBPs were loaded onto a heparin-sepharose column, and then eluted with buffer of increasing NaCl concentration. The concentration of NaCl required for peptide elution is used as an indication of the affinity of the peptide for heparin. The elution of the peptides from the heparin-sepharose column required a salt concentration of 962±10 mM for the PF4ZIP peptide.

[4] = Surface plasmon resonance on LMWH-modified streptavidin chip; format: binding
Experimental: as §1
In SPR experiments, the interaction of the peptides with a LMWH-modified SA chip surface was determined under conditions described in the experimental section. […] In addition, no mass transport limitation or linked reactions were indicated. […] These faster association kinetics, relative to those reported for the ATIII and HIP (Table 2) (see also N. Yamaguchi, B. S. Chae, L. Zhang, K. L. Kiick, E. M. Furst, Rheological characterization of polysaccharide-poly (ethylene glycol) star copolymer hydrogels, Biomacromolecules 6 (4) (2005) 1931-1940) are the primary cause of the lower measured KD values for PF4ZIP-LMWH binding, and the trend of the dissociation constants is consistent with the chromatography results. […] Nevertheless, the equilibrium constants of dissociation determined via both methods are substantially lower than the concentrations employed during hydrogel formation experiments (see below).
The heparin-binding kinetics between LMWH and PF4ZIP were monitored via SPR at several temperatures between 5° C. and 37° C., to determine potential changes in binding kinetics that might alter hydrogel properties under physiological conditions.

Substance | Kd [1] | ka [1] | kd [1] | Salt required for elution from heparin column [2] | Salt required for elution from heparin column [3] | ka ([4]; 5 ° C.) | kd ([4]; 5 ° C.) | ka ([4]; 15 ° C.) | kd ([4]; 15 ° C.) | Kd ([4]; 25° C.) | ka ([4]; 25° C.) | kd ([4]; 25° C.) | ka ([4]; 25 ° C. (Table 3)) | kd ([4]; 25 ° C. (Table 3)) | ka ([4]; 37 ° C.) | kd ([4]; 37 ° C.)
CRPKAKAKAKAKDQTK [HIP] | 4.2 ± 0.3 µM | 1.10 ± 0.08 × 10^3 M^−1s^−1 | 4.64 ± 0.02 × 10^−3 s^−1 | 687 ± 1 mM | – | – | – | – | – | – | – | – | – | – | – | –
CGGRMKQLEDKVKKLLKKNYHLENEVARLKKLVG [PF4ZIP] | – | – | – | – | 962 ± 10 mM | 1.56 ± 0.01 × 10^5 M^−1s^−1 | 3.74 ± 0.17 × 10^−3 s^−1 | 1.90 ± 0.04 × 10^5 M^−1s^−1 | 1.67 ± 0.03 × 10^−3 s^−1 | ~0.0115 µM and 0.0115 µM | 2.24±0.05×10^5 M^−1s^−1 | 2.56±0.10×10^−3 s^−1 | 2.24 ± 0.05 × 10^5 M^−1s^−1 | 2.56 ± 0.10 × 10^−3 s^−1 | 5.11 ± 0.02 × 10^5 M^−1s^−1 | 2.44 ± 0.08 × 10^−3 s^−1
CKbAFAKLAARLYRKA (CK[βAla]FAKLAARLYRKA-NH2; N-terminus assumed; SMILES CC(C)C[C@H](NC(=O)[C@H](CCCCN)NC(=O)[C@H](C)NC(=O)[C@H](Cc1ccccc1)NC(=O)CCNC(=O)[C@H](CCCCN)NC(=O)[C@@H](N)CS)C(=O)N[C@@H](C)C(=O)N[C@@H](C)C(=O)N[C@@H](CCCNC(=N)N)C(=O)N[C@@H](CC(C)C)C(=O)N[C@@H](Cc1ccc(O)cc1)C(=O)N[C@@H](CCCNC(=N)N)C(=O)N[C@@H](CCCCN)C(=O)N[C@@H](C)C(N)=O; listed as Homo sapiens) [ATIII] | 12.9 ± 1.3 µM | 1.56 ± 0.06 × 10^2 M^−1s^−1 | 2.00 ± 0.3 × 10^−3 s^−1 | 594 ± 2 mM | – | – | – | – | – | – | – | – | – | – | – | –
